pIC50: −log10 of the molar value.
Tested on: 996289-038-R-J1-PDC spheroid viability
Experiment: Anticancer human tumor 996289-038-R-J1-PDC patient-derived colon adenocarcinoma cell line growth inhibition [PI3K]
Conditions: spheroids with HUVEC and MSC; for pIC50: curve of first compound; for viability, T/C: stronger effect = lower value
How it was run: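 Stroma-containing spheroids: tumor line, pooled-donor HUVEC, hMSC. Treatments: targeted agents with PI3K inhibitors. Dosing: clinically relevant, half-log spacing, 10 microM ceiling without known Cmax. Read-out: cell viability.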

[1] = second compound 0.00316 µM, first compound 0.0316 µM
[2] = second compound 0.00316 µM, first compound 0.1 µM
[3] = second compound 0.01 µM, first compound 0.0316 µM
[4] = second compound 0.01 µM, first compound 0.1 µM
[5] = second compound 0.0316 µM, first compound 0.0316 µM
[6] = second compound 0.0316 µM, first compound 0.1 µM
[7] = second compound 0.1 µM, first compound 0.0316 µM
[8] = second compound 0.1 µM, first compound 0.1 µM
[9] = second compound 0.316 µM, first compound 0.0316 µM
[10] = second compound 0.316 µM, first compound 0.1 µM
[11] = second compound 1 µM, first compound 0.0316 µM
[12] = second compound 1 µM, first compound 0.1 µM
[13] = second compound 0.00316 µM, first compound 0.000316 µM
[14] = second compound 0.00316 µM, first compound 0.001 µM
[15] = second compound 0.00316 µM, first compound 0.00316 µM
[16] = second compound 0.00316 µM, first compound 0.01 µM
[17] = second compound 0.01 µM, first compound 0.000316 µM
[18] = second compound 0.01 µM, first compound 0.001 µM
[19] = second compound 0.01 µM, first compound 0.00316 µM
[20] = second compound 0.01 µM, first compound 0.01 µM
[21] = second compound 0.0316 µM, first compound 0.000316 µM
[22] = second compound 0.0316 µM, first compound 0.001 µM
[23] = second compound 0.0316 µM, first compound 0.00316 µM
[24] = second compound 0.0316 µM, first compound 0.01 µM
[25] = second compound 0.1 µM, first compound 0.000316 µM
[26] = second compound 0.1 µM, first compound 0.001 µM
[27] = second compound 0.1 µM, first compound 0.00316 µM
[28] = second compound 0.1 µM, first compound 0.01 µM
[29] = second compound 0.316 µM, first compound 0.000316 µM
[30] = second compound 0.316 µM, first compound 0.001 µM
[31] = second compound 0.316 µM, first compound 0.00316 µM
[32] = second compound 0.316 µM, first compound 0.01 µM
[33] = second compound 1 µM, first compound 0.000316 µM
[34] = second compound 1 µM, first compound 0.001 µM
[35] = second compound 1 µM, first compound 0.00316 µM
[36] = second compound 1 µM, first compound 0.01 µM
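Further: spheroids exposed to compounds for seven days before viability read.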
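Wherever viability, T/C is given: luminescence used as a proxy for viable cell amount; percent viability relative to DMSO vehicle control as 100%.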

Compound: CC(Cn1ccc(-c2ccc(C#N)c(Cl)c2)n1)NC(=O)c1cc(C(C)O)[nH]n1 (stereo not drawn) + COc1c(OCCCN2CCOCC2)ccc2c3n(c(=NC(=O)c4cnc(N)nc4)nc12)CCN3
- pIC50 (second compound 0.00316 µM): < 5.00
- pIC50 (second compound 0.01 µM): < 5.00
- pIC50 (second compound 0.0316 µM): < 5.00
- pIC50 (second compound 0.1 µM): < 5.00
- pIC50 (second compound 0.316 µM): > 7.50
- pIC50 (second compound 1 µM): > 7.50
- viability, T/C [1]: 103%
- viability, T/C [2]: 91.1%
- viability, T/C (second compound 0.00316 µM, first compound 0.316 µM): 98%
- viability, T/C (second compound 0.00316 µM, first compound 1 µM): 99%
- viability, T/C (second compound 0.00316 µM, first compound 3.16 µM): 96.9%
- viability, T/C (second compound 0.00316 µM, first compound 10 µM): 102%
- viability, T/C [3]: 90.5%
- viability, T/C [4]: 97.2%
- viability, T/C (second compound 0.01 µM, first compound 0.316 µM): 92.6%
- viability, T/C (second compound 0.01 µM, first compound 1 µM): 93.1%
- viability, T/C (second compound 0.01 µM, first compound 3.16 µM): 103%
- viability, T/C (second compound 0.01 µM, first compound 10 µM): 89.7%
- viability, T/C [5]: 69.7%
- viability, T/C [6]: 79.4%
- viability, T/C (second compound 0.0316 µM, first compound 0.316 µM): 85.6%
- viability, T/C (second compound 0.0316 µM, first compound 1 µM): 80%
- viability, T/C (second compound 0.0316 µM, first compound 3.16 µM): 78.9%
- viability, T/C (second compound 0.0316 µM, first compound 10 µM): 78.7%
- viability, T/C [7]: 55%
- viability, T/C [8]: 56.6%
- viability, T/C (second compound 0.1 µM, first compound 0.316 µM): 66.7%
- viability, T/C (second compound 0.1 µM, first compound 1 µM): 64.8%
- viability, T/C (second compound 0.1 µM, first compound 3.16 µM): 72.3%
- viability, T/C (second compound 0.1 µM, first compound 10 µM): 56.1%
- viability, T/C [9]: 34.1%
- viability, T/C [10]: 38.9%
- viability, T/C (second compound 0.316 µM, first compound 0.316 µM): 40%
- viability, T/C (second compound 0.316 µM, first compound 1 µM): 41%
- viability, T/C (second compound 0.316 µM, first compound 3.16 µM): 40.5%
- viability, T/C (second compound 0.316 µM, first compound 10 µM): 39.9%
- viability, T/C [11]: 25.2%
- viability, T/C [12]: 17.5%
- viability, T/C (second compound 1 µM, first compound 0.316 µM): 23%
- viability, T/C (second compound 1 µM, first compound 1 µM): 18%
- viability, T/C (second compound 1 µM, first compound 3.16 µM): 22.1%
- viability, T/C (second compound 1 µM, first compound 10 µM): 17.5%

Compound: CC(=O)c1c(C)c2cnc(Nc3ccc(N4CCNCC4)cn3)nc2n(C2CCCC2)c1=O + COc1c(OCCCN2CCOCC2)ccc2c3n(c(=NC(=O)c4cnc(N)nc4)nc12)CCN3
- pIC50 (second compound 0.00316 µM): < 7.00
- pIC50 (second compound 0.01 µM): < 7.00
- pIC50 (second compound 0.0316 µM): < 7.00
- pIC50 (second compound 0.1 µM): < 7.00
- pIC50 (second compound 0.316 µM): > 9.50
- pIC50 (second compound 1 µM): > 9.50
- viability, T/C [13]: 99.3%
- viability, T/C [14]: 96.9%
- viability, T/C [15]: 104%
- viability, T/C [16]: 94.2%
- viability, T/C [1]: 97.4%
- viability, T/C [2]: 83.1%
- viability, T/C [17]: 89.1%
- viability, T/C [18]: 89.9%
- viability, T/C [19]: 80.2%
- viability, T/C [20]: 90.8%
- viability, T/C [3]: 94.2%
- viability, T/C [4]: 73%
- viability, T/C [21]: 66.1%
- viability, T/C [22]: 81.4%
- viability, T/C [23]: 80.5%
- viability, T/C [24]: 81.8%
- viability, T/C [5]: 73.7%
- viability, T/C [6]: 70.6%
- viability, T/C [25]: 62.7%
- viability, T/C [26]: 56%
- viability, T/C [27]: 59.4%
- viability, T/C [28]: 55%
- viability, T/C [7]: 57.5%
- viability, T/C [8]: 49.8%
- viability, T/C [29]: 34.4%
- viability, T/C [30]: 31.6%
- viability, T/C [31]: 39.1%
- viability, T/C [32]: 31.3%
- viability, T/C [9]: 37.8%
- viability, T/C [10]: 29.4%
- viability, T/C [33]: 19.1%
- viability, T/C [34]: 22%
- viability, T/C [35]: 21.5%
- viability, T/C [36]: 16.6%
- viability, T/C [11]: 17.7%
- viability, T/C [12]: 15.9%

Compound: CC(C)n1nc(-c2ccc3oc(N)nc3c2)c2c(N)ncnc21 + CC(Nc1ccc2c(c1)OCCn1cc(N3C(=O)OCC3C(F)F)nc1-2)C(N)=O
- pIC50 (second compound 0.00316 µM): 7.29
- pIC50 (second compound 0.01 µM): 7.34
- pIC50 (second compound 0.0316 µM): 7.50
- pIC50 (second compound 0.1 µM): 7.63
- pIC50 (second compound 0.316 µM): 8.07
- pIC50 (second compound 1 µM): 8.26
- viability, T/C [13]: 95.9%
- viability, T/C [14]: 82.8%
- viability, T/C [15]: 90.5%
- viability, T/C [16]: 81.1%
- viability, T/C [1]: 64.5%
- viability, T/C [2]: 29.7%
- viability, T/C [17]: 94.8%
- viability, T/C [18]: 93.2%
- viability, T/C [19]: 84.6%
- viability, T/C [20]: 75.9%
- viability, T/C [3]: 62.4%
- viability, T/C [4]: 28.5%
- viability, T/C [21]: 100%
- viability, T/C [22]: 95.6%
- viability, T/C [23]: 79.1%
- viability, T/C [24]: 63.2%
- viability, T/C [5]: 54.7%
- viability, T/C [6]: 29.1%
- viability, T/C [25]: 85%
- viability, T/C [26]: 75.3%
- viability, T/C [27]: 67.8%
- viability, T/C [28]: 62%
- viability, T/C [7]: 48.5%
- viability, T/C [8]: 23.4%
- viability, T/C [29]: 64%
- viability, T/C [30]: 67.8%
- viability, T/C [31]: 57.2%
- viability, T/C [32]: 43.9%
- viability, T/C [9]: 39.8%
- viability, T/C [10]: 17.1%
- viability, T/C [33]: 52.3%
- viability, T/C [34]: 60.9%
- viability, T/C [35]: 57.2%
- viability, T/C [36]: 41.6%
- viability, T/C [11]: 33.7%
- viability, T/C [12]: 16%

Compound: Cn1ncnc1[C@H]1c2n[nH]c(=O)c3cc(F)cc(c23)N[C@@H]1c1ccc(F)cc1 + CC(Nc1ccc2c(c1)OCCn1cc(N3C(=O)OCC3C(F)F)nc1-2)C(N)=O
- pIC50 (second compound 0.00316 µM): < 7.00
- pIC50 (second compound 0.01 µM): < 7.00
- pIC50 (second compound 0.0316 µM): < 7.00
- pIC50 (second compound 0.1 µM): < 7.00
- pIC50 (second compound 0.316 µM): < 7.00
- pIC50 (second compound 1 µM): < 7.00
- viability, T/C [13]: 109%
- viability, T/C [14]: 104%
- viability, T/C [15]: 95%
- viability, T/C [16]: 112%
- viability, T/C [1]: 99.5%
- viability, T/C [2]: 90.2%
- viability, T/C [17]: 103%
- viability, T/C [18]: 102%
- viability, T/C [19]: 103%
- viability, T/C [20]: 111%
- viability, T/C [3]: 106%
- viability, T/C [4]: 98.6%
- viability, T/C [21]: 114%
- viability, T/C [22]: 85.7%
- viability, T/C [23]: 88.5%
- viability, T/C [24]: 101%
- viability, T/C [5]: 97.3%
- viability, T/C [6]: 85.4%
- viability, T/C [25]: 89.1%
- viability, T/C [26]: 87.6%
- viability, T/C [27]: 77.5%
- viability, T/C [28]: 91.6%
- viability, T/C [7]: 92%
- viability, T/C [8]: 78.3%
- viability, T/C [29]: 81.7%
- viability, T/C [30]: 77.8%
- viability, T/C [31]: 81.2%
- viability, T/C [32]: 82.2%
- viability, T/C [9]: 79.2%
- viability, T/C [10]: 68.7%
- viability, T/C [33]: 53%
- viability, T/C [34]: 59.8%
- viability, T/C [35]: 68.6%
- viability, T/C [36]: 58.1%
- viability, T/C [11]: 59.2%
- viability, T/C [12]: 54.2%

— PubChem BioAssay AID1963965 (Molecular Pharmacology Branch, DTP, NCI, 2024)
